Holding throughout (assay type): functional
Assay [1] deals with HOP-62. As to the kind of experiment: Cytotoxicity against human HOP62 cells.
In assay [2] the test system is MDA-MB-435. As to the kind of experiment: Cytotoxicity against human MDA-MB-435 cells.
Assay [3] deals with OVCAR-3. As to the kind of experiment: Cytotoxicity against human OVCAR-3 cells.
The test system of assay [4] is SF-539. As to the kind of experiment: Cytotoxicity against human SF539 cells.
Assay [5] concerns SN12C. As to the kind of experiment: Cytotoxicity against human SN12C cells.
The subject of assay [6] is UACC-62. As to the kind of experiment: Cytotoxicity against human UACC62 cells.
Assay [7] has as its system HCT-116. As to the kind of experiment: Cytotoxicity against human HCT116 cells.
Assay [8] relates to DU-145. As to the kind of experiment: Cytotoxicity against human DU145 cells.

What is called GI50 is the concentration at which growth is held to half of that of the control. The low end stands for more potent growth inhibition, the high end for less potent growth inhibition. Turning to `NCCCn1c2c(c3ccc([N+](=O)[O-])cc3c1=O)C(=O)c1cc(Br)ccc1-2`, the concentration for 50% growth inhibition (GI50) in assay [1] was 0.033 µM; in assay [2] it was 0.162 µM; in assay [3], 0.295 µM; in assay [4] it was 0.011 µM; in assay [5], below 0.01 µM; in assay [6] it was below 0.01 µM. Further, the GI50 in assay [7] was 0.048 µM; in assay [8], below 0.01 µM.

Regarding `NCCCn1c2c(c3ccc([N+](=O)[O-])cc3c1=O)C(=O)c1cc(I)ccc1-2`, the concentration for 50% growth inhibition (GI50) in assay [1] is 0.021 µM; in assay [2], 0.224 µM; in assay [3], 1.2 µM; in assay [4], 0.044 µM; in assay [5] it was below 0.01 µM; in assay [6], below 0.01 µM. The concentration for 50% growth inhibition (GI50) in assay [7] and in assay [8] was below 0.01 µM each time.

For the compound `N#Cc1ccc2c(c1)C(=O)c1c-2n(CCCCl)c(=O)c2cc([N+](=O)[O-])ccc12`, the GI50 was 2.57 µM in assay [1]; above 100 µM in assay [2]; 8.71 µM in assay [3]; 2.63 µM in assay [4]; 5.89 µM in assay [5]; 1.12 µM in assay [6]. The GI50 in assay [7] is 1.82 µM; in assay [8], 2.75 µM.

As to `CCOc1ccc2c(c1)C(=O)c1c-2n(CCCN=[N+]=[N-])c(=O)c2cc([N+](=O)[O-])ccc12`, the concentration for 50% growth inhibition (GI50) in assay [1] turned out to be 3.02 µM; in assay [2], 39.8 µM; in assay [3], 20 µM; in assay [4], 3.89 µM; in assay [5], 5.25 µM; in assay [6], 2.88 µM. Besides, the 50% growth inhibitory concentration (GI50) came to 1.82 µM in assay [7] and 3.89 µM in assay [8].

As to `Cc1ccc(S(=O)(=O)Oc2ccc3c(c2)C(=O)c2c-3n(CCCBr)c(=O)c3cc([N+](=O)[O-])ccc23)cc1`, the GI50 is 7.59 µM in assay [1]; above 100 µM in assay [2]; 81.3 µM in assay [3]; 50.1 µM in assay [4]; above 100 µM in assay [5]; 23.4 µM in assay [6]. In addition, the GI50 in assay [7] was above 100 µM; in assay [8] it was 58.9 µM.

`COc1cc2c3c(n(CCCBr)c(=O)c2cc1OC)-c1ccc(F)cc1C3=O`: the GI50 is 4.17 µM in assay [1]; 43.7 µM in assay [2]; 24.5 µM in assay [3]; 3.55 µM in assay [4]; 15.5 µM in assay [5]; 3.89 µM in assay [6]. The concentration for 50% growth inhibition (GI50) in assay [7] turned out to be 5.75 µM; in assay [8], 4.36 µM.

Turning to `CSc1ccc2c(c1)C(=O)c1c-2n(CCCN=[N+]=[N-])c(=O)c2cc([N+](=O)[O-])ccc12`, the concentration for 50% growth inhibition (GI50) in assay [1] stood at 0.603 µM; in assay [2], 6.03 µM; in assay [3] it was 3.89 µM; in assay [4] it was 0.891 µM; in assay [5], 1.05 µM; in assay [6], 0.708 µM. In addition, the GI50 in assay [7] came out at 0.776 µM; in assay [8], 1.15 µM.

Turning to `COc1ccc2c(c1)C(=O)c1c-2n(CCCN)c(=O)c2cc(OC)c(OC)cc12`, the 50% growth inhibitory concentration (GI50) in assay [1] is below 0.01 µM; in assay [2], 1.7 µM; in assay [3] it was 0.389 µM; in assay [4] it was 0.115 µM; in assay [5], 0.141 µM; in assay [6], 0.427 µM. In addition, the GI50 in assay [7] was 0.054 µM; in assay [8], below 0.01 µM.

With `O=C1c2cc(-c3ccccc3)ccc2-c2c1c1ccc([N+](=O)[O-])cc1c(=O)n2CCCBr`, the 50% growth inhibitory concentration (GI50) was 18.2 µM in assay [1]; above 50.1 µM in assay [2]; above 50.1 µM in assay [3]; 16.6 µM in assay [4]; above 50.1 µM in assay [5]; 49 µM in assay [6]. Besides, the 50% growth inhibitory concentration (GI50) in assay [7] and in assay [8] was above 50.1 µM each time.

Take `COC(=O)c1ccc2c(c1)C(=O)c1c-2n(CCCN)c(=O)c2cc(OC)c(OC)cc12`: the 50% growth inhibitory concentration (GI50) worked out at 3.72 µM in assay [1]; 18.2 µM in assay [2]; 16.6 µM in assay [3]; 15.8 µM in assay [4]; 15.1 µM in assay [5]; 17.4 µM in assay [6]. Further, the GI50 in assay [7] stood at 16.6 µM; in assay [8] it was 17.8 µM.

As to `COc1cc2c3c(n(CCCN=[N+]=[N-])c(=O)c2cc1OC)-c1ccc(C#N)cc1C3=O`, the GI50 in assay [1] was 14.1 µM; in assay [2] it was above 100 µM; in assay [3] it was 17 µM; in assay [4] it was 17.4 µM; in assay [5], 15.5 µM; in assay [6] it was 12.3 µM. Further, the GI50 turned out to be 24 µM in assay [7] and 33.9 µM in assay [8].

Consider `COC(=O)c1ccc2c(c1)C(=O)c1c-2n(CCCN=[N+]=[N-])c(=O)c2cc(OC)c(OC)cc12`, for which the concentration for 50% growth inhibition (GI50) in assay [1], in assay [2], in assay [3], in assay [4], in assay [5] and in assay [6] was above 100 µM throughout. For the same compound, the GI50 in assay [7] and in assay [8] was above 100 µM throughout.

As to `CCc1ccc2c(c1)C(=O)c1c-2n(CCCBr)c(=O)c2cc([N+](=O)[O-])ccc12`, the GI50 in assay [1] was 21.4 µM; in assay [2], above 50.1 µM; in assay [3], above 50.1 µM; in assay [4], 28.2 µM; in assay [5] it was above 50.1 µM; in assay [6], 32.4 µM. Moreover, the GI50 in assay [7] and in assay [8] was above 50.1 µM each time.

In the case of `COc1cc2c3c(n(CCCCl)c(=O)c2cc1OC)-c1ccc(C#N)cc1C3=O`, the 50% growth inhibitory concentration (GI50) in assay [1] was 14.8 µM; in assay [2], above 100 µM; in assay [3], 12.9 µM; in assay [4], 7.24 µM; in assay [5], 22.9 µM; in assay [6], 6.76 µM. Further, the GI50 in assay [7] amounted to 15.1 µM; in assay [8] it was 10.7 µM.

For the compound `CCOc1ccc2c(c1)C(=O)c1c-2n(CCCN)c(=O)c2cc([N+](=O)[O-])ccc12`, the GI50 in assay [1] came to 0.012 µM; in assay [2], 0.2 µM; in assay [3], 0.457 µM; in assay [4] it was 0.035 µM; in assay [5] it was 0.055 µM; in assay [6], 0.055 µM. Moreover, the figures for the GI50 in assay [7] and in assay [8] were 0.174 µM and 0.011 µM, respectively.

On to `[N-]=[N+]=NCCCn1c2c(c3ccc([N+](=O)[O-])cc3c1=O)C(=O)c1cc(-c3ccccc3)ccc1-2`, for which the concentration for 50% growth inhibition (GI50) in assay [1], in assay [2], in assay [3], in assay [4], in assay [5] and in assay [6] was above 100 µM throughout. Besides, the concentration for 50% growth inhibition (GI50) in assay [7] and in assay [8] was above 100 µM each time.

For `NCCCn1c2c(c3ccc([N+](=O)[O-])cc3c1=O)C(=O)c1cc(-c3ccccc3)ccc1-2`, the GI50 is 0.186 µM in assay [1]; 0.468 µM in assay [2]; 1.82 µM in assay [3]; 1.62 µM in assay [4]; 0.437 µM in assay [5]; 1.51 µM in assay [6]. Moreover, the values for the GI50 in assay [7] and in assay [8] were 0.178 µM and 0.2 µM, respectively.

As to `COc1cc2c3c(n(CCCN)c(=O)c2cc1OC)-c1ccc([N+](=O)[O-])cc1C3=O`, the 50% growth inhibitory concentration (GI50) in assay [1] was determined as 0.617 µM; in assay [2], 15.8 µM; in assay [3] it was 16.6 µM; in assay [4], 3.72 µM; in assay [5], 11.7 µM; in assay [6], 11.5 µM. The results for the GI50 in assay [7] and in assay [8] were 1.32 µM and 2.09 µM, respectively.

The values above are taken from ChEMBL document CHEMBL1148751, “Optimization of the indenone ring of indenoisoquinoline topoisomerase I inhibitors” (2007).
